Values belong to the compound of their own block, whether it stands above or below them.
Experiments:
[1] = test system: lung tissue cytokines and eotaxins; assay: Pup lung cytokines, chemokines, IDO and MHCII by qPCR; BAL CCL24 by ELISA; format: in vivo, C57BL/6 mice
Protocol: Total RNA was isolated from 50 to 100 mg lung tissue using the QIAGEN RNeasy Fibrous Tissue Mini Kit. cDNA was prepared using a SuperScript II RNase H-Reverse Transcriptase kit (Invitrogen) and analyzed by PCR on an ABI 7300 Thermal Cycler (Applied Biosystems). Taqman probes and Taqman Universal Master Mix were used as directed (Applied Biosystems). CCL24 in the BAL also was examined by ELISA (Raybiotech).

[2] = Liver tocopherol measurement by HPLC with electrochemical detection; format: in vivo, C57BL/6 mice
Protocol: Diets or livers were weighed and homogenized in absolute ethanol with 5% ascorbic acid on ice. The internal standard tocol is added to each […] to determine recovery. The homogenate or plasma was extracted with an equal volume of hexane with 0.37 wt/100 wt butylated hydroxytoluene to prevent oxidation and increase recovery of tocopherol. The samples were vortexed and then centrifuged for 10 min at 9,000 g at 4° C. The hexane layer was dried under nitrogen and stored at −20° C. The samples were reconstituted in methanol, and then tocopherols were separated using a reverse-phase C18 HPLC column (Hewlett Packard) and HPLC (Waters) with 99% methanol-1% water as a mobile phase with detection with an electrochemical detector (potential 0.7 V) (Waters).

[3] = test system: pup lung dendritic cell subsets; assay: Flow cytometry analysis of pup lung dendritic cell subsets; format: in vivo, C57BL/6 mice
Protocol: (§1) Following BAL of pups, lungs were removed for analysis of dendritic cell types by flow cytometry. In the fetus, hematopoiesis occurs in the fetal livers. Gestational day 18 fetal livers were collected for analysis of fetal liver DCs. Briefly, tissues were minced and suspended in 5 ml of RPMI solution containing 1 mg/ml collagenase D (Roche) and 0.2 mg/ml DNase I (Roche) at 37° C. with agitation. After 1 h, samples were filtered through sterile 70-μm mesh tissue, centrifuged, and resuspended in 5% FBS-RPMI solution. Red blood cells were lysed in 1×BD PharmLyse Lysing Buffer (BD Biosciences), and the cells were washed two times in PBS. All centrifugation steps were carried out at 300 g for 5 min. Three million cells were used per sample for immunolabeling.
The cells were stained for live/dead exclusion in 500 μl PBS containing 0.25 μl of Aqua fluorescent reactive dye (Molecular Probes, Invitrogen) for 20 min at room temperature in the dark. Next, FC receptors were blocked by incubating the cells in 50 μl flow cytometry staining buffer (Biolegend) with 0.75 μl purified rat anti-mouse CD16/CD32 Mouse BD FC Block (no. 553142; BD Pharmingen) for 10 min at 4° C.
To prepare the antibodies for immunolabeling, for each sample equivalent, an antibody stock was prepared by adding the following antibodies to 50 μl of flow cytometry buffer: 1) Live/Dead Aqua fluorescent dye (no. L34957; Molecular Probes, Invitrogen), 0.25 μl/sample; 2) CD45, rat anti-mouse FITC-conjugated, 0.5 mg/ml, clone 30-F11 (no. 103107; Biolegend), 0.31 μl/sample; 3) CD11b, rat anti-mouse PE-CF594-conjugated, 0.2 mg/ml, clone M1/70 (no. 562317; BD Biosciences), 0.05 μl/sample; 4) Ly-6C, rat anti-mouse APC/Cy7-conjugated, 0.2 mg/ml, clone HK1.4 (no. 128025; Biolegend), 0.4 μl/sample; 5) CD11c, Armenian hamster anti-mouse PE/Cy7-conjugated, 0.2 mg/ml, clone N418 (no. 117317; Biolegend), 0.2 μl/sample; 6) I-A/I-E (MHCII), rat anti-mouse PerCP/Cy5.5-conjugated, 0.2 mg/ml, clone M5/114.15.2 (no. 107625; Biolegend), 0.1 μl/sample; 7) CD103, Armenian hamster anti-mouse Brilliant Violet 421-conjugated, clone 2E7 (no. 121421; Biolegend), 0.2 μl/sample; 8) CD317 (PDCA-1), rat anti-mouse APC-conjugated, 0.2 mg/ml, clone 927 (no. […]
(§2) The cells were examined with a BD LSRII flow cytometer (BD Biosciences). […] Fluorescence Minus One staining controls were used as negative controls to identify gates for populations of interest. The following subpopulations of DCs were analyzed: 1) resident conventional DCs: CD11b+Ly6C−CD11chighMHCIIhigh; 2) CD11b+ alveolar DCs: CD11b+Ly6C−CD11c+MHCII−; 3) inflammatory DCs: CD11b+Ly6C+CD11c+MHCII+; 4) plasmacytoid DCs (pDCs): CD11b−Ly6C−CD11clowPDCA-1+MHCII−; 5) resident CD103+DCs: CD11b−Ly6C−CD11c+CD103+MHCII−; and 6) CD11b−alveolar DCs: CD11b−Ly6C−CD11c+MHCII+/−. […]

[4] = test system: fetal liver dendritic cell subsets; assay: Flow cytometry analysis of gestational day 18 fetal liver dendritic cells; format: in vivo, C57BL/6 mice
Protocol: as §1, with “immunolabeling. […]” for “immunolabeling.”
as §2

[5] = test system: bone marrow-derived CD11c+CD11b+ DCs; assay: Bone marrow-derived dendritic cell culture with GM-CSF in vitro; format: cell-based, mice; settings: 80 μM vs DMSO
Protocol: For bone marrow-derived postnatal day 10 pup dendritic cell cultures, a single cell suspension of bone marrow from 10-day-old mice was placed in RPMI 1640, glutamine, HEPES, gentamycin sulfate, penicillin/streptomycin, and 10% heat-inactivated FCS. The bone marrow cells were treated with the DMSO solvent control (0.01%) or D-α-tocopherol (80 μM) as we previously described for in vitro treatment with D-α-tocopherol (7). The cells were stimulated with 5 ng granulocyte macrophage colony-stimulating factor (GM-CSF) per milliliter. The culture medium with tocopherol and GM-CSF was replaced on days 2, 4, and 7. […]

[6] = test system: bone marrow-derived DCs co-cultured with CD4+ T cells; assay: Bone marrow-derived DCs co-cultured 48 hours with purified CD4+ T cells; format: cell-based; settings: 48 hours co-culture (not shown)
Protocol: FIGS. 17A-C show α-T and γ-T have opposing effects in regulation of DC development and function in vitro. FIGS. 17A and B show results from bone marrow from postnatal day 10 neonate (with basal diet) that was cultured with GM-CSF and with 80 μM αT (FIG. 17B) or 2 μM γT (FIG. 17A) for 8 days and analyzed for DC subsets by immunolabeling/flow cytometry. *, p<0.05 compared to DMSO group. **, p<0.05 compared to indicated group. […] Expression by qPCR. There was no effect on cell viability (not shown). n=3. **, p<0.05 compared to all other groups. *, p<0.05 compared to DMSO group.

[7] = test system: OVA-challenged pups from allergic mothers; assay: OVA-induced allergic inflammation in pups from allergic mothers given D-α-tocopherol-supplemented diet
[8] = test system: OVA-challenged pups from allergic mothers; assay: Maternal γ-tocopherol supplementation of allergic mothers, suboptimal OVA challenge of pups; format: in vivo, C57BL/6 mice; settings: for numbers of IRF4+CD11b+CD11c+ dendritic cells in pup lung: OVA-challenged pups from allergic mothers; for inflammatory mediators in OVA-treated pup lungs: protein array and ELISA of minced lung culture supernatants
Protocol: (§3) C57BL/6 female mice were sensitized with OVA/alum and challenged with OVA (150 μg) as in the timeline below. Then, the cages were supplied with basal diet (45 mg γ-tocopherol/kg diet) or γ-tocopherol supplemented diets (250 mg γ-tocopherol/kg diet) and males were introduced for breeding. The pups were administered a suboptimal dose of OVA/alum (i.e., one i.p. with OVA/alum and 3 challenges for 10 min with 3% OVA as previously described (Am J Respir Cell Mol Biol 2011. 44: 285 and Am J PhysiolLung Cell MolPhysiol. 2014, 15; 307:L482-96; both of which are herein incorporated by reference in their entireties).

[9] = Tissue γ-tocopherol after maternal γ-tocopherol-supplemented diet; format: in vivo, C57BL/6 mice
Protocol: as §3

[10] = maternal supplementation during pregnancy/lactation, first litter, PND13, qPCR
[11] = second litter, 500 mg/kg maternal diet, OVA-challenged pups from allergic mothers
[12] = PND13 OVA-challenged pups, maternal supplementation
[13] = bone marrow from 10-day-old neonates, 8 days
[14] = maternal supplementation, discussion statement
[15] = 250 mg γ-tocopherol/kg maternal diet
[16] = 250 mg γ-tocopherol/kg maternal diet, listed as γT
[17] = 250 mg γ-tocopherol/kg maternal diet, allergic mothers

- increase of pup liver D-α-tocopherol with maternal supplementation ([2]; PND13 pup liver): 2.5 fold
- lung weight [7, 14]: did not affect
- pup gender distribution ([7]; maternal supplemented diets): no effect
- pup numbers ([7]; maternal supplemented diets): no effect
- pup weight ([7]; maternal supplemented diets, pups PND13): no effect
Compound: Cc1c(C)c2c(c(C)c1O)CC[C@@](C)(CCC[C@H](C)CCC[C@H](C)CCCC(C)C)O2 [D-α-tocopherol, D-α-Tocopherol]
- OVA-induced pup lung mRNA expression of CCL11 [1, 10]: inhibited
- OVA-induced pup lung mRNA expression of CCL24 [1, 10]: inhibited
- OVA-induced pup lung mRNA expression of IL-4 [1, 10]: inhibited
- OVA-induced pup lung mRNA expression of IL-33 [1, 10]: inhibited
- protein expression of CCL24 in BAL supernatant ([1]; maternal supplementation during pregnancy/lactation, PND13, ELISA): inhibited
- whole lung expression of IFNγ [1, 11]: no effect
- whole lung expression of IL-2 [1, 11]: no effect
- whole lung expression of IL-10 [1, 11]: no effect
- whole lung expression of MHCII [1, 11]: no effect
- whole lung expression of TNF-α [1, 11]: no effect
- whole lung mRNA expression of CCL11 [1, 11]: reduced
- whole lung mRNA expression of CCL24 [1, 11]: reduced
- whole lung mRNA expression of IL-4 [1, 11]: reduced
- whole lung mRNA expression of IL-33 [1, 11]: reduced
- whole lung mRNA expression of TSLP [1, 11]: reduced
- lung tissue expression of IDO ([1]; second litter, 500 mg/kg maternal diet, pups from allergic mothers and saline mothers): reduced
- lung tissue number of CD11c+CD11b+ subsets of DCs, including resident conventional DCs, mDCs, and CD11b+ alveolar DCs [3, 12]: significantly reduced
- pup lung CD11c+CD11b− subsets of cells, including pDCs, resident CD103+DCs, CD11b− alveolar DCs, and alveolar macrophages [3, 12]: did not alter
- mean fluorescence intensity for MHCII, CD80, and CD86 on CD11c+CD11b+DCs and CD11c+CD11b−DCs ([3]; pup lung, among the groups (data not shown)): not different
- pup lung pDC-to-cDC ratio ([3]; supplementation of allergic mothers, OVA-challenged pups, 0.3 with basal diet): 0.53
- fetal liver CD11c+CD11b− subsets ([4]; maternal supplementation (data not shown)): not altered
- number of CD11c+CD11b+DCs in fetal livers, including phenotype of mDCs and of resident DCs ([4]; supplementation of allergic mothers): reduced
- percent of viable cells in the culture ([5]; 8 days (data not shown)): without affecting
- number of CD45+CD11b+CD11+DCs [5, 13]: reduced
- number of cells with resident DC phenotype (CD45+CD11b+CD11c+Ly6c−MHCII−DCs) [5, 13]: reduced
- cell viability ([6]; 80 μM α-T): no effect
- percent eosinophils in the BAL ([7]; 150 mg α-tocopherol/kg maternal diet, pups PND13): partially inhibited
- percent eosinophils in the BAL ([7]; 250 mg α-tocopherol/kg maternal diet, pups PND13): greatest inhibition
- development of the allergic response in cross-fostered neonates ([7]; 250 mg/kg diet during pregnancy only, pups cross-fostered to allergic mothers with basal diet): sufficient to inhibit
- allergic responses in cross-fostered neonates ([7]; 250 mg/kg diet supplementation during lactation only, cross-fostered): reduced
- percent eosinophils in the BAL ([7]; 500 mg α-tocopherol/kg maternal diet, pups PND13): greatest inhibition
- inhibition of BAL eosinophils in the OVA-challenged pups ([7]; 500 mg/kg diet started at second mating, second litter of allergic mothers): > 90%
- OVA-specific serum IgE in pups ([7]; among the D-α-tocopherol treatment groups, ELISA): not different
- allergic inflammation in the OVA-stimulated pups from allergic mothers ([7]; maternal diet 150, 250 or 500 mg/kg diet vs basal 45 mg/kg, pregnancy and lactation, PND13 BAL): dose-dependent inhibition
- eosinophils in the lung tissue of OVA-challenged pups ([7]; maternal supplementation of allergic female mice, eosin/methyl green histology): reduced
- allergic responses in the lung (BAL eosinophils and monocytes) ([7]; maternal supplementation, PND13 pups of the liver tocopherol/DC experiment (FIG. 9D)): blocked
- body weight [7, 14]: did not affect

- liver γ-tocopherol ([2]; all groups of the D-α-tocopherol diet experiment (data not shown)): < 0.003 μg γ-tocopherol/g liver tissue
- number of pups from supplemented allergic mothers [8, 15]: fewer pups
- number of allergic mothers with pups ([8]; 250 mg γ-tocopherol/kg maternal diet, percentage of mated females that had pups): reduced
- tissue γ-tocopherol in mothers [9]: elevates
- tissue γ-tocopherol in pups [9]: elevates
Compound: Cc1c(O)cc2c(c1C)O[C@](C)(CCC[C@H](C)CCC[C@H](C)CCCC(C)C)CC2 [γ-tocopherol]
- number of BAL leukocytes in OVA-challenged pups from allergic mothers [8, 15]: increases
- pup responses to allergen challenge ([8]; 250 mg γ-tocopherol/kg maternal diet during pregnancy/lactation, allergic mothers): elevated
- numbers of IRF4+CD11b+CD11c+ dendritic cells in pup lung [8, 15]: increases
- numbers of IRF4+CD11b+CD11c+ dendritic cells in pup lung [8, 16]: elevated numbers
- numbers of CD11b expressing subsets of CD11c dendritic cells in pup lung [8, 17]: increased numbers
- numbers of pup lung eosinophils [8, 17]: increased numbers
- inflammatory mediators in OVA-treated pup lungs [8, 15]: increases
- inflammatory mediators in OVA-treated pup lungs [8, 16]: increased
- cell viability ([6]; 2 μM γ-T): no effect

Source: patent publication US20160038459A1, “COMPOSITIONS AND METHODS FOR THE TREATMENT OF NATAL AND PRE-NATAL CONDITIONS WITH ALPHA-TOCOPHEROL” (Northwestern University, priority 2014, published 2016)
